Experimental data from patent publication US20130260436A1, “Methods of Identifying and Characterizing Natural Product Gene Clusters” (Victoria LInk Limited, priority 2010, published 2013).

Tests used:
holo-BpsA = biological target: T1, holo-BpsA (Streptomyces lavendulae, UniProt Q1MWN4); experiment: Inhibition of indigoidine synthesis by pre-activated holo-BpsA (counter-screen); assay type: biochemical, S. lavendulae ATCC 11924; details: pre-activated holo-BpsA in isolation
T1 construct: 6His; made in house; host or cells: E. coli
T1 sequence (Q1MWN4 1-1282): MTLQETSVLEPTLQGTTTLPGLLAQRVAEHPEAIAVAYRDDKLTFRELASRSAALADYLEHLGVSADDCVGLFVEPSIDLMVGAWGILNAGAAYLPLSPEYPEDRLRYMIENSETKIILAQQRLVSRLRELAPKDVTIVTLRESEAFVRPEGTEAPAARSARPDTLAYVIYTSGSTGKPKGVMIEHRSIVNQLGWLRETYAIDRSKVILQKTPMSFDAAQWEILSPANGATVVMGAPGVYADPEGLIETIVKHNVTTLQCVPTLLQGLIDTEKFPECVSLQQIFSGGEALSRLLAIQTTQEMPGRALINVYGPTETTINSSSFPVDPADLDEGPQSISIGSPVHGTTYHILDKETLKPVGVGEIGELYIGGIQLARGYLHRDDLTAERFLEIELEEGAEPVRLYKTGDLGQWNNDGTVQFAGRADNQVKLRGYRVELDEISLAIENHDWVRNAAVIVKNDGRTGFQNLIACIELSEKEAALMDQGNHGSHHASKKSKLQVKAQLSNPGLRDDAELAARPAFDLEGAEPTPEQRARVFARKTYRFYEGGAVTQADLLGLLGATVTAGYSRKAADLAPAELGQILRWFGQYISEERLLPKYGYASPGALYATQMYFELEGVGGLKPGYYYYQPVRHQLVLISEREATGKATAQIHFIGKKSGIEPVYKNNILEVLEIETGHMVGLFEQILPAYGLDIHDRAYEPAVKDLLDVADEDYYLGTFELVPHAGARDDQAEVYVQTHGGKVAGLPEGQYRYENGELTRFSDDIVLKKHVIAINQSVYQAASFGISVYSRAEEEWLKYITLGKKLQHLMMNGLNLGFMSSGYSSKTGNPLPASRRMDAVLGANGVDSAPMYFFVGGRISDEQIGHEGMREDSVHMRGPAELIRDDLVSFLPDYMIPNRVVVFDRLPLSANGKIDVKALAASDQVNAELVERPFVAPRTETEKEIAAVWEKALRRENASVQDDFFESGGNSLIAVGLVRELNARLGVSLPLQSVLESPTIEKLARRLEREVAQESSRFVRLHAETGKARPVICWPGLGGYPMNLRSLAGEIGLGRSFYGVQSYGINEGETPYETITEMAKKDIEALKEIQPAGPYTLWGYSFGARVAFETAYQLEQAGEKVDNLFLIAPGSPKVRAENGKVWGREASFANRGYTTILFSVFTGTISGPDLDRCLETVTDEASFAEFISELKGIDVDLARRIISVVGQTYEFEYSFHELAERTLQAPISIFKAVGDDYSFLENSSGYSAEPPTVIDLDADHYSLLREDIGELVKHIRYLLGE

all three PPTases = experiment: BpsA coupled PPTase inhibition assay, summary over all three PPTases
Method: Each of the three PPTases was evaluated for inhibition across a two-fold serial dilution series of 6-NOBP (250-0.12 μM) with CoA concentration fixed at either 10 or 2.5 μM. […] Derived Ki values were most consistent between CoA concentrations when the Cheng-Prusoff equation for competitive inhibition was employed.
Triplicate two fold serial dilution series (250-0.12 μM) of the previously identified PPTase inhibitor 6-NOBP were established in a final volume of 50 ml 10% DMSO in a 96 wp. 100 μL of reaction mix (20 or 5 μM CoA, 5 mM ATP, 20 mM MgCl2, 8 mM L-Gln and 100 mM Tris-CL, 1.66 μM apo-BpsA, pH 7.8) was then added to each well. Reactions were then initiated by addition of 50 μL 0.32-1.0 μM PPTase in water to each well followed by mixing at 1000 rpm for 10 s. A590 values were then recorded and PPTase velocities determined as previously described.

PcpS [1] = biological target: PcpS (Pseudomonas aeruginosa, UniProt Q9I4H2); experiment: BpsA coupled PPTase inhibition assay, PcpS; assay type: biochemical; details: for IC50: 95% CI in parentheses; for Ki: Cheng-Prusoff, competitive inhibition
Chain of PcpS (Pseudomonas aeruginosa, UniProt Q9I4H2) (Q9I4H2 entry or part of it): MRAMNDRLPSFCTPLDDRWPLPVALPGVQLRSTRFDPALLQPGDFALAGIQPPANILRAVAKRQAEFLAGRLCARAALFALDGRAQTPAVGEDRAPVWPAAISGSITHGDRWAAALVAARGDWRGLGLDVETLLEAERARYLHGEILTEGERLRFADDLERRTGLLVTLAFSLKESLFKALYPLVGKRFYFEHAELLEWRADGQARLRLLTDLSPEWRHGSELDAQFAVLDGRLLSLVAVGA

PcpS [2] = experiment: Screening of the LOPAC1280 library for PcpS inhibitors with the BpsA coupled assay; assay type: biochemical, P. aeruginosa; details: compound approximately 18 μM; 0.18 μM PcpS
Method: 1.8 μL of each compound from a Lopac^1280 library plate was added to 30 μL of 10% DMSO in MQ using a CyBio CyBi-well, giving a final compound concentration of approximately 18 μM. Next 50 μl, of a master mix containing 5 μM Co-enzyme A, 1.66 μM BpsA, 20 mM MgCl2, 5 mM ATP, 8 mM L-Gln, 100 mM Tris-HCl pH 7.8 and MQ was added. To initiate the reaction 20 μL of PcpS at a final reaction concentration of 0.18 μM and MQ was added rapidly, using an automatic dispensing Pipette. The plate was then shaken for 10 seconds at 1000 rpm to mix the compounds. The plate was then read 25 times to measure the Absorbance at 590 nm (with 20 second intervals between each read) in an EnSpire plate reader at 25° C. […] Negative and positive controls were established in wells in these columns, and used to monitor the reaction. […] Both control reactions were run in triplicate.
1.8 μL of each compound from a Lopac^1280 library plate was added to 304 of 10% DMSO in MQ using a CyBio CyBi-well, giving a final compound concentration of approximately 18 μM. Next 50 μL of a master mix containing 5 μM Co-enzyme A, 1.66 μM BpsA, 20 mM MgCl2, 5 mM ATP, 8 mM L-Gln, 100 mM Tris-HCl pH 7.8 and MQ was added. […] The plate was then read 25 times to measure the Absorbance at 590 nm (with 20 second intervals between each read) in an EnSpire plate reader at 25° C. […]

PP1183 = PP1183 (Pseudomonas putida, UniProt Q88NM4); experiment: BpsA coupled PPTase inhibition assay, PP1183; assay type: biochemical, P. putida KT2440; details: for IC50: IC50, PP1183, 95% CI in parentheses; for Ki: PP1183, Cheng-Prusoff, competitive inhibition
Chain of PP1183 (Q88NM4 entry or part of it): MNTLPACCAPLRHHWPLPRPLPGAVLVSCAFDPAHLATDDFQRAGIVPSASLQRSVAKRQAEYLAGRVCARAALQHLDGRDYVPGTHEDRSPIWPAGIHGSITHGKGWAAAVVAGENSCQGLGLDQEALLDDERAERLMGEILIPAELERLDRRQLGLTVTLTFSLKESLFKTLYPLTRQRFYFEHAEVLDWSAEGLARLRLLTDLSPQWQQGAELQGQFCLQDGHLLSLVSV

Sfp = Sfp (Bacillus spizizenii, UniProt G4NQW2); experiment: BpsA coupled PPTase inhibition assay, Sfp; assay type: biochemical, B. subtilis subsp. spizizenii ATCC6633; details: for IC50: IC50, Sfp, 95% CI in parentheses; for Ki: Sfp, Cheng-Prusoff, competitive inhibition
Chain of Sfp (G4NQW2 entry or part of it): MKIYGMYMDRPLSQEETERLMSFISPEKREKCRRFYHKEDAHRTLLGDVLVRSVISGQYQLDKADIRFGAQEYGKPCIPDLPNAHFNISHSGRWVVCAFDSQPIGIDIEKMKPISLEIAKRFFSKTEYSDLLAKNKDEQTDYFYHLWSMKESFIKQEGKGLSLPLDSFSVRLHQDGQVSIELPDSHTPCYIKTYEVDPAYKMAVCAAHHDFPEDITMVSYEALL

E. coli = assay type: cell-based; details: high levels of active BpsA, excess L-Gln, extended time
Source text: In one embodiment, activation of the NRPS BpsA then produces the dye, indigoidine. […] Due to this toxicity, E. coli cells expressing high levels of active BpsA in the presence of excess L-Gln for an extended period of time are not viable. Toxicity may be avoided by plating an E. coli reporter strain comprising a CNA expression construct on a selection medium lacking an inducer of BpsA expression. In one embodiment the inducer is IPTG.
We constructed plasmids that allowed IPTG regulated co-expression of a candidate PPTase and BpsA in E. coli BL21(DE3). To enable IPTG regulated co-expression the BpsA gene of S. lavendulae ATCC 11924 was cloned into pCDFDUET-1 (Novagen) and three candidate PPTases into the (origin of replication compatible) vector pET28a(+). […] In contrast, if IPTG was absent from the medium viable co-transformed cells were recovered with good efficiency (not shown). […] In order to circumvent this problem we employed auto-induction agar plates, prepared by addition of 1.5% agar to Studier ZYP-5052 auto-induction medium (Studier 2005). Use of auto-induction agar plates allowed for both rapid growth and efficient induction of pigment production following extended incubation at room temperature.
Initial trials were run using E. coli harbouring a P. putida PPTase expression plasmid. […]

[3] = Effect of pH on indigoidine stability (loss of colouration, A590); assay type: physicochemical; details: culture supernatant, 50 mM sodium phosphate buffer, 20 min
Method: (A) Diluted sterile supernatant from an indigoidine producing culture was incubated for 20 min with 50 mM sodium phosphate buffer at each of the indicated pH values in triplicate. Loss of colouration was then assessed by measuring A590. Error bars are presented as +/− one standard deviation. (B) Indigoidine reactions differing only in the pH of the buffer used are shown.
The supernatant from BpsA-expressing cultures reached a much higher A590 (˜1.2) than the maximum achieved from any in vitro experiments (˜0.3) (not shown). Without wishing to be bound by theory, the inventors hypothesized that that since indigoidine produced and exported from a cell in vivo was effectively removed from exposure to intracellular enzymes, the loss of in vitro product may have been due to enzymatic degradation in the in vitro assay preparations. This could be due to BpsA itself, the activating PPTase or an undetected contaminating species. To test this possibility, filter sterilized culture supernatant containing indigoidine was incubated with various concentrations of each enzyme preparation used for in vitro assays. No difference in pigment levels resulted from this treatment. It was concluded that the loss of pigmentation seen in vitro was not enzyme catalysed. […] A more detailed analysis of the relationship between pH and pigment stability was then conducted. […]

[4] = Kuhn et al, 1965; cited from earlier work
PcpS [5] = experiment: Qualitative assessment of PcpS inhibition relative to 6-NOBP; assay type: biochemical, P. aeruginosa; details: each inhibitor 20 μM; 0.18 μM PcpS
Method: Duplicate wells with different inhibitors added. The No PcpS wells have ddH2O added instead of PcpS. The BpsA only wells have DMSO added instead of an inhibitor. The 6-NOBP wells have had 6-NOBP added at a final concentration of 20 μM. The Bay 11-7085 wells have had Bay 11-7085 added to a final concentration of 20 μM.
Bay 11-7085 was then serially diluted from 20 μM to 0.625 μM across the wells. The reaction was initiated by the addition of PcpS to a final concentration of 0.18 μM and indigoidine production was then monitored at 590 nm. Each concentration was tested in triplicate and the average of the three wells was taken to calculate the maximum velocity. The maximum velocity in each well was expressed as a percentage of the maximum velocity in the wells where no Bay11-7085 was present. For qualitative assessment of Bay11-7085 mediated inhibition of PcpS relative to 6-NOBP, duplicate wells were established with either 20 μM of each inhibitor or with DMSO added instead of an inhibitor (positive control). For a negative control, ddH2O was added instead of PcpS. Reactions were initiated by addition of 20 μL of PcpS at a final reaction concentration of 0.18 μM (or H2O for the negative control) using an automatic dispensing Pipette. The plate was then shaken for 10 seconds at 1000 rpm to mix the compounds, and incubated on the benchtop until the positive control wells had gone dark blue.

O=Nc1ccc2oc(=O)ccc2c1 [6-NOBP]
IC50 (holo-BpsA): 29.2 µM
IC50 (all three PPTases; read-out: IC50 values, range over the three PPTases, CoA concentration set at 5 μM): 9.1 to 10.8 µM
Ki (all three PPTases; read-out: K, values, range over the three PPTases, converted from IC50 with Km of each PPTase): 0.5 to 7.5 µM
IC50 (PcpS [1]; 1.25 μM CoA): 4.05 µM
Ki (PcpS [1]; 1.25 μM CoA): 3.1 µM
IC50 (PcpS [1]; 5 μM CoA): 10.8 µM
Ki (PcpS [1]; 5 μM CoA): 4.7 µM
Outcome in high throughput screen for PcpS inhibitors (PcpS [2]): weak PcpS inhibitor
IC50 (PP1183; 1.25 μM CoA): 3.7 µM
IC50 (PP1183; 5 μM CoA): 9.81 µM
Ki (PP1183; 1.25 μM CoA): 3.3 µM
Ki (PP1183; 5 μM CoA): 6.8 µM
IC50 (Sfp; 1.25 μM CoA): 2.11 µM
IC50 (Sfp; 5 μM CoA): 9.06 µM
Ki (Sfp; 1.25 μM CoA): 0.7 µM
Ki (Sfp; 5 μM CoA): 1 µM

indigoidine
Toxicity to E. coli (E. coli): toxic to E. coli over time
Pigment stability versus pH [3]: decolouration occurred to a greater extent at higher pH
Pigment stability versus pH (previous observations) [4]: unstable at alkaline pH

CC(C)(C)c1ccc(S(=O)(=O)/C=C/C#N)cc1 [Bay11-7085]
Qualitative inhibition of PcpS relative to 6-NOBP (PcpS [5]): clearly a stronger inhibitor of PcpS than 6-NOBP
